The values below come from patent publication US12528773B2, “Non-lysosomal glucosylceramidase inhibitors and uses thereof” (ALECTOS THERAPEUTICS INC., priority 2020, dated 2026).

By IC50 is commonly meant the concentration at which inhibition is half-maximal.

In experiment [1] the target is GBA2 (Homo sapiens (Human), UniProt Q9HCG7). The experiment in a line: Inhibition of GBA2 in cell lysate (4-methylumbelliferone glucopyranoside substrate).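 Further: homogenate of stably transfected HEK293T cells pre-treated with a GCase inhibitor, test compound preincubated 5 min at 37 °C, substrate reaction 20 min at 37 °C.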 It is filed as biochemical.
GBA2, sequence (Q9HCG7 whole entry): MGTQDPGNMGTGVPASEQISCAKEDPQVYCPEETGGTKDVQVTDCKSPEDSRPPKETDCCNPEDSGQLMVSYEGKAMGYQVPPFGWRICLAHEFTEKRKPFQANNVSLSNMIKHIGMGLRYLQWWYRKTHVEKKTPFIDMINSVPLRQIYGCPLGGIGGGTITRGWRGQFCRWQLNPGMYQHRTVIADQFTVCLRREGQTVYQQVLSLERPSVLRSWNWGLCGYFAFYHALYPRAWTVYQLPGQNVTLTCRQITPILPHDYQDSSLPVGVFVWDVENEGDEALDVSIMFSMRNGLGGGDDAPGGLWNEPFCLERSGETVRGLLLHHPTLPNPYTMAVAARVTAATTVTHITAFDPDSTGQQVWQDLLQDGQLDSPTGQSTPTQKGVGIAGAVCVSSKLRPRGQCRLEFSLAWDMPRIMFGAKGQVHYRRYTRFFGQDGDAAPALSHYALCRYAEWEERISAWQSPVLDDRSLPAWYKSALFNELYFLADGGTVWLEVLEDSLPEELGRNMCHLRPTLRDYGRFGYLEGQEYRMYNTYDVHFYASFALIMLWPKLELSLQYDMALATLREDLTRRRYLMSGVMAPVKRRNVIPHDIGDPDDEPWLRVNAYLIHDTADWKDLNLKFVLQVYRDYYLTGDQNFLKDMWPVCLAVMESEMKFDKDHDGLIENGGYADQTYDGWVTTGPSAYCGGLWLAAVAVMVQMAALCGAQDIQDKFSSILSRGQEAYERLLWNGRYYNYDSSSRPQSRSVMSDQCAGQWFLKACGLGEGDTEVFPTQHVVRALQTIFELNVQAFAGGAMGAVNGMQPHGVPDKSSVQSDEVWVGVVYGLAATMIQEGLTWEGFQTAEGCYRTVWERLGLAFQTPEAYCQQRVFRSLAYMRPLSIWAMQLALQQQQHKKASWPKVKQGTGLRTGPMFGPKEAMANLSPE
The subject of experiment [2] is rat intestinal alpha-glucosidases. Kind of experiment: Inhibition of rat intestinal alpha-glucosidases (rat intestinal lysate, glucose detection). Type of experiment: biochemical. The following applies: compound concentration 25 μM, sucrose as substrate. On the procedure:
Assay for Determination of Inhibition of Rat Intestinal Alpha-Glucosidases
Various concentrations of test compounds were prepared in DMSO and then diluted into buffer consisting of 100 mM citric acid, 200 mM disodium phosphate, pH 6.0. Rat intestinal acetone powder (Sigma) was dissolved to 12.5 mg/mL in assay buffer and sonicated in an ice bath, centrifuged, and the supernatant was collected, aliquoted and stored at −20° C. until use. On the day of the assay, the rat intestinal lysate was diluted to 6.25 mg/mL (sucrose reactions) and 2.1 mg/ml (maltose reactions) in assay buffer. The final reaction solutions for sucrose contained 2.1 mg/mL rat intestinal lysate, 40 mM sucrose, 50 or 25 μM of test compound, and 3.3% DMSO. The final reaction solution for maltose contained 0.69 mg/mL rat intestinal lysate, 10 mM maltose, 50 or 25 μM of test compound, and 3.3% DMSO. The reaction was initiated by the addition of substrate (sucrose or maltose) and allowed to proceed at 37° C. for 20 min to assess rat intestinal alpha-glycosidase activities. The reaction was stopped by addition of 20 μL of 2 M Tris-HCl, pH 7.0. The glucose produced during the reaction was detected using a commercial Amplex Red glucose detection kit from Thermo Fisher. For a full plate, the Amplex Red detection mixture was prepared by mixing 35 μL glucose oxidase, 35 μL horseradish peroxidase and 35 μL Amplex Red into 3395 μL 1× Amplex Red detection buffer. A total of 30 μL of detection mixture was added to each well. Fluorescence was measured in kinetic mode on a Biotek Synergy H4 plate reader at a wavelength of 573 nm for excitation and 610 nm for emission for 15 min and quantified from the data at 10 min. Incubations without added rat intestinal lysate were used to correct for the background amount of glucose present in the samples. Incubations without added test compound were used to define maximal enzyme activity. Percent inhibition of rat intestinal alpha-glucosidases was determined by dividing the amount of glucose detected in the presence of test compound by the amount of glucose detected in the maximal enzyme activity wells. All conditions were analyzed in triplicate. […] The final reaction solutions were the same as described above for the Amplex Red Detection kit. After a 20 min reaction time at 37° C., 100 μL of hexokinase glucose reagent was added to all test wells except for the no enzyme added control wells and no test compound added wells. The plate was incubated for a further 15 min at room temperature and the absorbance was read at 340 nm on a Biotek Synergy H4 plate reader. The percent inhibition of rat intestinal alpha-glucosidases was determined in a similar manner as described above.

[3] abbreviates: HEK293T-overexpressing GBA2 cellular homogenate, pH 5.5, read-out: GBA2 IC50.

Like-named read-outs stand apart in the source and are kept apart here.

As to `O[C@H]1[C@H](O)CN(C[C@H]2CCN(c3nc4ccccc4o3)C2)C[C@@H]1O` [Example 22, (3S,4R,5R)-1-(((R)-1-(benzo[d]oxazol-2-yl)pyrrolidin-3-yl)methyl)piperidine-3,4,5-triol], in experiment [1] (setting [3]), the IC50 is less than 100 nM. Moreover, the “rat α-glu. (% inhib.)” value in experiment [2] was 4%.

As to `O[C@H]1[C@H](O)CN(C[C@@H]2CCCN(c3ccc(C(F)(F)F)cn3)C2)C[C@@H]1O` [Example 177, (3S,4S,5R)-1-(((S)-1-(5-(trifluoromethyl)pyridin-2-yl)piperidin-3-yl)methyl)piperidine-3,4,5-triol], the IC50 in experiment [1] (setting [3]) lay in the range of 1000 to 25000 nM. For the same compound, the “rat α-glu. (% inhib.)” value in experiment [2] worked out at 7%. In the same order, the values of `O[C@H]1[C@H](O)CN(CCc2cccc(Cl)c2F)C[C@@H]1O` [Example 6, (3S,4r,5R)-1-(3-chloro-2-fluorophenethyl)piperidine-3,4,5-triol] are less than 100 nM and 3%. In the same order, the values of `O[C@H]1[C@H](O)CN(C[C@@H]2CCN(c3cccc4scnc34)C2)C[C@@H]1O` [Example 28, (3S,4S,5R)-1-(((S)-1-(benzo[d]thiazol-4-yl)pyrrolidin-3-yl)methyl)piperidine-3,4,5-triol] are less than 100 nM and 11%. On to `CCCCN1C[C@H](O)[C@@H](O)[C@H](O)[C@H]1CO` [NB-DNJ, (2R,3R,4R,5S)-1-butyl-2-(hydroxymethyl)piperidine-3,4,5-triol, reference compound], for which the “rat α-glu. (% inhib.)” value in experiment [2] was 98%. `O[C@H]1[C@H](O)CN(C[C@@H]2CCCN(c3cccc(C(F)(F)F)n3)C2)C[C@@H]1O` [Example 37, (3S,4S,5R)-1-(((S)-1-(6-(trifluoromethyl)pyridin-2-yl)piperidin-3-yl)methyl)piperidine-3,4,5-triol]: the IC50 in experiment [1] (setting [3]) lay in the range of 100 to 1000 nM. Further, the “rat α-glu. (% inhib.)” value in experiment [2] was 0%. `O[C@H]1[C@H](O)CN(C[C@@H]2CCCN(c3nc(C(F)(F)F)cs3)C2)C[C@@H]1O` [Example 39, (3S,4S,5R)-1-(((S)-1-(4-(trifluoromethyl)thiazol-2-yl)piperidin-3-yl)methyl)piperidine-3,4,5-triol]: the IC50 in experiment [1] (setting [3]) is 100 to 1000 nM. Also, the “rat α-glu. (% inhib.)” value in experiment [2] is given as 0%. For `O[C@H]1[C@H](O)CN(C[C@H]2CCCN(c3cc(C(F)(F)F)ccn3)C2)C[C@@H]1O` [Example 169, (3S,4R,5R)-1-(((R)-1-(4-(trifluoromethyl)pyridin-2-yl)piperidin-3-yl)methyl)piperidine-3,4,5-triol], in that order: less than 100 nM and 13%. Consider `O[C@H]1[C@H](O)CN(C[C@H]2CCN(c3ccc(C(F)(F)F)nc3)C2)C[C@@H]1O` [Example 149, (3S,4R,5R)-1-(((R)-1-(6-(trifluoromethyl)pyridin-3-yl)pyrrolidin-3-yl)methyl)piperidine-3,4,5-triol], for which the IC50 in experiment [1] (setting [3]) was less than 100 nM. Moreover, the “rat α-glu. (% inhib.)” value in experiment [2] amounted to 0%. For `O[C@H]1[C@H](O)CN(C[C@H]2CCCN(c3cncc(C(F)(F)F)c3)C2)C[C@@H]1O` [Example 168, (3S,4R,5R)-1-(((R)-1-(5-(trifluoromethyl)pyridin-3-yl)piperidin-3-yl)methyl)piperidine-3,4,5-triol], in that order: less than 100 nM and 7%. Take `CCCCCOc1ccc(CN2C[C@@H](O)[C@H](O)[C@@H](O)C2)cc1` [Example 198, (3S,4r,5R)-1-(4-(pentyloxy)benzyl)piperidine-3,4,5-triol]: in experiment [1] (setting [3]), the IC50 was less than 100 nM. For the same compound, the “rat α-glu. (% inhib.)” value in experiment [2] worked out at 12%.

As to `O[C@H]1[C@H](O)CN(CC2CCN(c3ccccc3)CC2)C[C@@H]1O` [Example 106, (3S,4r,5R)-1-((1-phenylpiperidin-4-yl)methyl)piperidine-3,4,5-triol], in experiment [1] (setting [3]), the concentration for half-maximal inhibition (IC50) is less than 100 nM. Further, the “rat α-glu. (% inhib.)” value in experiment [2] was 9%.

`CC(Cc1cccc(Cl)c1F)N1C[C@@H](O)[C@H](O)[C@@H](O)C1` (stereo partly drawn) [Example 16, (3S,4r,5R)-1-(1-(3-chloro-2-fluorophenyl)propan-2-yl)piperidine-3,4,5-triol]: the IC50 in experiment [1] was in the range of 100 to 1000 nM. Besides, the “rat α-glu. (% inhib.)” value in experiment [2] stood at 7%. Take `O[C@H]1[C@H](O)CN(Cc2ccc(-c3ccccc3)cc2)C[C@@H]1O` [Example 202, (3S,4r,5R)-1-([1,1′-biphenyl]-4-ylmethyl)piperidine-3,4,5-triol]: the IC50 in experiment [1] (setting [3]) is less than 100 nM. The “rat α-glu. (% inhib.)” value in experiment [2] was determined as 11%. In the same order, the values of `O[C@H]1[C@H](O)CN(CC2Cc3ccccc3C2)C[C@@H]1O` [Example 62, (3S,4r,5R)-1-((2,3-dihydro-1H-inden-2-yl)methyl)piperidine-3,4,5-triol] are less than 100 nM and 12%. In the case of `O[C@H]1[C@H](O)CN(Cc2ccc(Oc3ccccc3)cc2)C[C@@H]1O` [Example 201, (3S,4r,5R)-1-(4-phenoxybenzyl)piperidine-3,4,5-triol], the IC50 in experiment [1] (setting [3]) was less than 100 nM. The “rat α-glu. (% inhib.)” value in experiment [2] is recorded as 3%. In the same order, the values of `O[C@H]1[C@H](O)CN(C[C@H]2CCN(c3cncc(C(F)(F)F)c3)C2)C[C@@H]1O` [Example 146, (3S,4R,5R)-1-(((R)-1-(5-(trifluoromethyl)pyridin-3-yl)pyrrolidin-3-yl)methyl)piperidine-3,4,5-triol] are less than 100 nM and 0%. As for `O[C@H]1[C@H](O)CN(C[C@@H]2CCCN(c3ccc(C(F)(F)F)nc3)C2)C[C@@H]1O` [Example 178, (3S,4S,5R)-1-(((S)-1-(6-(trifluoromethyl)pyridin-3-yl)piperidin-3-yl)methyl)piperidine-3,4,5-triol], in experiment [1] (setting [3]), the IC50 lay in the range of 100 to 1000 nM. In experiment [2], the “rat α-glu. (% inhib.)” value is 6%. In the same order, the values of `O[C@H]1[C@H](O)CN(CC2(F)CCN(c3cccc(C(F)(F)F)n3)CC2)C[C@@H]1O` [Example 195, (3S,4r,5R)-1-((4-fluoro-1-(6-(trifluoromethyl)pyridin-2-yl)piperidin-4-yl)methyl)piperidine-3,4,5-triol] are 100 to 1000 nM and 5%. In the same order, the values of `O[C@H]1[C@H](O)CN(C[C@H]2CCCN(c3cnccc3C(F)(F)F)C2)C[C@@H]1O` [Example 167, (3S,4R,5R)-1-(((R)-1-(4-(trifluoromethyl)pyridin-3-yl)piperidin-3-yl)methyl)piperidine-3,4,5-triol] are less than 100 nM and 4%. Regarding `O[C@H]1[C@H](O)CN(C[C@@H]2CCN(c3cnccc3C(F)(F)F)C2)C[C@@H]1O` [Example 25, (3S,4S,5R)-1-(((S)-1-(4-(trifluoromethyl)pyridin-3-yl)pyrrolidin-3-yl)methyl)piperidine-3,4,5-triol], the IC50 in experiment [1] (setting [3]) is less than 100 nM. The “rat α-glu. (% inhib.)” value in experiment [2] came out at 1%. In the same order, the values of `CCCCOc1ccc(CN2C[C@@H](O)[C@H](O)[C@@H](O)C2)cc1` [Example 197, (3S,4r,5R)-1-(4-butoxybenzyl)piperidine-3,4,5-triol] are less than 100 nM and 5%. As to `CC(F)(F)[C@H]1CC[C@@H](CN2C[C@@H](O)[C@H](O)[C@@H](O)C2)CC1` [Example 187, (3S,4R,5R)-1-(((1s,4S)-4-(1,1-difluoroethyl)cyclohexyl)methyl)piperidine-3,4,5-triol], the IC50 in experiment [1] (setting [3]) was less than 100 nM. The “rat α-glu. (% inhib.)” value in experiment [2] is 0%. Take `O[C@H]1[C@H](O)CN(Cc2ccc(N3CCCCC3)cc2)C[C@@H]1O` [Example 204, (3S,4r,5R)-1-(4-(piperidin-1-yl)benzyl)piperidine-3,4,5-triol]: the IC50 in experiment [1] (setting [3]) lay in the range of 100 to 1000 nM. Further, in experiment [2], the “rat α-glu. (% inhib.)” value was found to be 4%. For the compound `O[C@H]1[C@H](O)CN(C[C@H]2CCCN(c3nc(C(F)(F)F)cs3)C2)C[C@@H]1O` [Example 33, (3S,4R,5R)-1-(((R)-1-(4-(trifluoromethyl)thiazol-2-yl)piperidin-3-yl)methyl)piperidine-3,4,5-triol], the IC50 in experiment [1] (setting [3]) was less than 100 nM. On to `OC[C@@H]1[C@@H](O)[C@H](O)[C@@H](O)CN1CCCCCOCC12CC3CC(CC(C3)C1)C2` [AMP-DNM, (2R,3R,4R,5S)-1-(5-((3R,5R,7R)-adamantan-1-ylmethoxy)pentyl)-2-(hydroxymethyl)piperidine-3,4,5-triol, reference compound], for which, in experiment [2], the “rat α-glu. (% inhib.)” value is given as 85%. Turning to `O[C@H]1[C@H](O)CN(Cc2ccc(N3CCCC3)cc2)C[C@@H]1O` [Example 203, (3S,4r,5R)-1-(4-(pyrrolidin-1-yl)benzyl)piperidine-3,4,5-triol], the IC50 in experiment [1] (setting [3]) fell in the range of 100 to 1000 nM.
